Experimental data published in ChEMBL document CHEMBL3507680, “University of Dundee, Gates Library screen for HepG2 cell viability”.

Assay: Human HepG2 cell viability assay in 384 well format
Format: toxicity, cell-based
Parameters: dose 125 nL, time 70.5 hour; concentration not given beside the values
Settings: HepG2 cells, read-out: Inhibition
`COC1CCN(Cc2csc(C(C)C)n2)CC1` showed a cytotoxicity at 70.5 h of -5.9%. Work on `CC(C)c1ccsc1C(=O)N1CCCN(Cc2cscn2)CC1` yielded a cytotoxicity at 70.5 h of 15.1%. With `Cc1cnn(CCNCC(=O)NCC2(c3ccccc3)CCC2)c1` the cytotoxicity at 70.5 h was 22.8%. With `CCn1c(C)nnc1CN(C)C1CCN(CCc2ccncc2)C1` (centres undefined) the cytotoxicity at 70.5 h was -3.16%. In the case of `O=C(NCCNc1ccc(C(F)(F)F)cn1)c1cncc(Br)c1`, the cytotoxicity at 70.5 h is reported as -12.5%. `CCn1cnnc1CNC(=O)N1CCN(Cc2ccccc2)CC1` showed a cytotoxicity at 70.5 h of -1.29%. With `CC(CNC(=O)Nc1cn[nH]c1)N1CCOCC1` (centres undefined) the cytotoxicity at 70.5 h was -12.1%. Work on `Cc1nn(C)c(N2CCOCC2)c1CNCc1ccnc(N(C)C)c1` yielded a cytotoxicity at 70.5 h of -5.34%. For `CS(=O)(=O)NC1CCCN(C(=O)NCc2cccnc2)C1` (centres undefined), the cytotoxicity at 70.5 h was -0.126%. `Cc1nn(C)c(N2CCOCC2)c1CNCc1ccc(Cl)s1` showed a cytotoxicity at 70.5 h of -2.69%. Compound `COc1ccnc(N2CCN(C(=O)Cc3ccc(C#N)cc3)CC2)n1` has a cytotoxicity at 70.5 h of -0.995%. `Cc1nc2c(c(C)c1CC(=O)NCc1cccc(C#N)c1)c(=O)[nH]n2C` gave a cytotoxicity at 70.5 h of -2.99%. For `Cc1nc(C)n(CC2CCCN(Cc3ccc(C(N)=O)cc3)C2)n1` (centres undefined), the cytotoxicity at 70.5 h was -4.6%. `COc1ccccc1OCCC(=O)N1CCCC1Cn1cc(C)cn1` (centres undefined) gave a cytotoxicity at 70.5 h of -6.74%. With `O=C(CCc1nccs1)N1CCN(c2ncccn2)CC1` the cytotoxicity at 70.5 h was -1.61%. For `Cn1cnnc1C1CCCN(C(=O)c2cnc3ccccc3n2)C1` (centres undefined), the cytotoxicity at 70.5 h was -1.48%. `COc1c(C2CCCN2C(=O)c2ccc3cc[nH]c3c2)c(C)nn1C` (centres undefined) gave a cytotoxicity at 70.5 h of -2.48%. `COc1c(C2CCCN2C(=O)c2cccc(C(N)=O)c2)c(C)nn1C` (centres undefined) gave a cytotoxicity at 70.5 h of 18.9%. Compound `COc1c(C2CCCN2C(=O)c2ccnc(N(C)C)c2)c(C)nn1C` (centres undefined) has a cytotoxicity at 70.5 h of -6.74%. `Cc1ncsc1C(=O)N1CCCN(Cc2cscn2)CC1` showed a cytotoxicity at 70.5 h of -12.1%. Compound `CC1CN(C(=O)CN(Cc2ccccc2Br)C2CC2)CCO1` (centres undefined) has a cytotoxicity at 70.5 h of -0.289%. Work on `Cc1cc(CN2CCN(C(=O)c3sccc3C(C)C)CC2)no1` yielded a cytotoxicity at 70.5 h of -0.556%. With `c1ccc2oc(CCCN3CCOC(Cn4cccn4)C3)nc2c1` (centres undefined) the cytotoxicity at 70.5 h was 0.524%. In the case of `COc1c(CNCC(c2cccc(F)c2)N(C)C)c(C(C)C)nn1C` (centres undefined), the cytotoxicity at 70.5 h is reported as 12.7%. With `CS(=O)(=O)c1ccc(CNC2CCCN(c3cccnn3)C2)cc1` (centres undefined) the cytotoxicity at 70.5 h was -6.92%. With `OCC1CCCN1c1cc(N2CCC(OC3CCCC3)CC2)ncn1` (centres undefined) the cytotoxicity at 70.5 h was -3.18%. `Cc1noc(C(C)C)c1C(=O)N1CCCN(Cc2cscn2)CC1` showed a cytotoxicity at 70.5 h of 1.02%. `Cc1cccc(C)c1NC(=O)CCNC(=O)c1ccoc1` showed a cytotoxicity at 70.5 h of -3.89%. With `Cc1cccc(C)c1OCCNC(=O)NC(C)c1nncn1C` (centres undefined) the cytotoxicity at 70.5 h was 41.6%. In the case of `Cc1ccoc1C(=O)NCC(Cc1ccc(F)cc1)C(N)=O` (centres undefined), the cytotoxicity at 70.5 h is reported as -3.51%. Compound `CCOc1ccc(CC(CNC(=O)c2ccoc2)C(N)=O)cc1` (centres undefined) has a cytotoxicity at 70.5 h of 49.1%. Work on `CCOc1ccc(CC(CNC(=O)c2occc2C)C(N)=O)cc1` (centres undefined) yielded a cytotoxicity at 70.5 h of 6.46%. `NC(=O)c1ccc(OCC(=O)N2CCCC(n3cccn3)C2)cc1` (centres undefined) showed a cytotoxicity at 70.5 h of -12%. With `Cc1oc(C)c(C(=O)N2CCCN(Cc3cscn3)CC2)c1C` the cytotoxicity at 70.5 h was 5.51%. With `Cc1cc(C)n(C2CCCN(C(=O)c3cnc4onc(C)c4c3)C2)n1` (centres undefined) the cytotoxicity at 70.5 h was -7.95%. `Cc1nc(C)n(C2CCCN(C(=O)c3cc4ccccc4n3C)C2)n1` (centres undefined) showed a cytotoxicity at 70.5 h of -1.56%. Compound `CC(C)c1nnc2n1CCN(C(=O)c1ccc(CN(C)C)cc1)C2` has a cytotoxicity at 70.5 h of 3.04%. Work on `CC(C)c1nccn1C1CCCN(C(=O)c2ccnc(N(C)C)c2)C1` (centres undefined) yielded a cytotoxicity at 70.5 h of -2.47%. For `c1cnnc(N2CCCC(NCc3ccc(-n4ccnc4)cc3)C2)c1` (centres undefined), the cytotoxicity at 70.5 h was -10.5%. `COc1ccccc1C(=O)N(C)Cc1ncc(C)c(OC)c1C` showed a cytotoxicity at 70.5 h of -6.37%. For `CCn1c(C)cc(C(=O)N2CCCC(c3nc(C)no3)C2)c1C` (centres undefined), the cytotoxicity at 70.5 h was -3.95%. For `CN(CC1CN(Cc2cn3ccsc3n2)CCO1)c1cccnn1` (centres undefined), the cytotoxicity at 70.5 h was -2.29%. `CCc1[nH]ncc1C(=O)N1CCCN(Cc2cnn(C)c2)CC1` gave a cytotoxicity at 70.5 h of -10.9%. Compound `CNC(=O)CN1CCC(NC(=O)N(C)Cc2cc(C)on2)CC1` has a cytotoxicity at 70.5 h of -10.8%. Work on `CN(Cc1cccs1)C(=O)CS(=O)(=O)Cc1ccc(Cl)c(Cl)c1` yielded a cytotoxicity at 70.5 h of 26.3%. Compound `CC(OCC(F)(F)F)C(=O)Nc1ccc(-n2cncn2)nc1` (centres undefined) has a cytotoxicity at 70.5 h of -12.6%. With `CCc1nnc(CN2CCN(C(=O)c3ccccn3)CC2)o1` the cytotoxicity at 70.5 h was -21.8%. With `CN(Cc1ccccc1F)C(=O)CS(=O)(=O)Cc1ccc(Cl)c(Cl)c1` the cytotoxicity at 70.5 h was -19%. In the case of `CNS(=O)(=O)c1ccc(CNC(=O)NCC2CCOC2)cc1` (centres undefined), the cytotoxicity at 70.5 h is reported as -31.2%. Work on `Cc1cc(CN(C)C(=O)NC2CCS(=O)(=O)C2)no1` (centres undefined) yielded a cytotoxicity at 70.5 h of -15.8%. In the case of `CC(C)C(=O)NCc1cccc(N2CCCCC2=O)c1`, the cytotoxicity at 70.5 h is reported as -12.2%. `Cn1cnnc1C1CCCN(C(=O)NCCc2ccccc2F)C1` (centres undefined) gave a cytotoxicity at 70.5 h of -11.6%. Work on `c1coc(-c2noc(CN3CC(n4cccn4)C3)n2)c1` yielded a cytotoxicity at 70.5 h of -7.3%. In the case of `CCn1cnnc1C1CCN(C(=O)COc2ccccc2)CC1`, the cytotoxicity at 70.5 h is reported as -9.36%. Work on `Cc1oc(-c2ccco2)nc1CC(=O)N1CCN(C2CCC2)CC1` yielded a cytotoxicity at 70.5 h of -1.12%. `Cc1noc(C2CCCN(C(=O)c3ccc(Br)cc3F)C2)n1` (centres undefined) showed a cytotoxicity at 70.5 h of -7.35%. Work on `Cc1nc(C(=O)N2CCC(Nc3cccnn3)CC2)cs1` yielded a cytotoxicity at 70.5 h of 28.6%. `Cc1nnc(N2CCC(CN(C)C(C)C)CC2)c(C#N)c1C` gave a cytotoxicity at 70.5 h of 20.7%. `CC(C)c1nc(CN2CCCCC2)cs1` showed a cytotoxicity at 70.5 h of -4.92%.
